Laboratory results taken from patent US20230128372A1 (EXCALIBUR MEDICINES LIMITED, priority 2020, published 2023).

What was measured:
[1] = test system: healthy, non-diabetic patients; conditions: doses of 40 mg or 80 mg; hypoglycaemia defined as 2.7 mmol/l; cited from earlier work
rat hepatocytes = conditions: cited from earlier work
rat glucokinase = molecular target: T1, rat glucokinase (Rattus norvegicus, UniProt P17712); conditions: read-out: EC50 activation of glucokinase; recombinant rat enzyme, in vitro; cited from earlier work
T1 sequence (P17712 1-465): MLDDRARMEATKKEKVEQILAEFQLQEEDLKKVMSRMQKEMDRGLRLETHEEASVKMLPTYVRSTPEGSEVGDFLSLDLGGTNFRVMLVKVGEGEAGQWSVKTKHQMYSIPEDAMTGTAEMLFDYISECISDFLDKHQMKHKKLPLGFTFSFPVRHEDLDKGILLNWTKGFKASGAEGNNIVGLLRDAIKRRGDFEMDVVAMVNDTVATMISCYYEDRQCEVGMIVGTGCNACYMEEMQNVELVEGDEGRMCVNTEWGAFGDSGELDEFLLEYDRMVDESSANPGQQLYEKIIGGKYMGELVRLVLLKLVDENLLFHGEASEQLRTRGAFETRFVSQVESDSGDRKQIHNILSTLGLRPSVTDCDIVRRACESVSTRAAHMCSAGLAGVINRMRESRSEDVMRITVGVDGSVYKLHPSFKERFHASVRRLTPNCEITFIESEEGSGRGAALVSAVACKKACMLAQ

human hepatocytes = conditions: cited from earlier work
diabetic mice = conditions: dosed acutely and once daily for up to 28 days, rapid onset of action; cited from earlier work
[2] = test system: normo-glycaemic insulin resistant rats; conditions: dosed acutely and once daily for up to 28 days, rapid onset of action; cited from earlier work
human glucokinase = human glucokinase (Homo sapiens, UniProt P35557); conditions: read-out: EC50 activation of glucokinase; recombinant human enzyme, in vitro; cited from earlier work
[3] = test system: hospitalised diabetic patients with known or suspected COVID-19; conditions: 60 patients, test and control group combined (blinded); 12 deaths expected from Coronad study
healthy animals = conditions: cited from earlier work
[4] = test system: Japanese type 2 diabetic subjects; conditions: cited from earlier work

human glucokinase, sequence (P35557 whole entry): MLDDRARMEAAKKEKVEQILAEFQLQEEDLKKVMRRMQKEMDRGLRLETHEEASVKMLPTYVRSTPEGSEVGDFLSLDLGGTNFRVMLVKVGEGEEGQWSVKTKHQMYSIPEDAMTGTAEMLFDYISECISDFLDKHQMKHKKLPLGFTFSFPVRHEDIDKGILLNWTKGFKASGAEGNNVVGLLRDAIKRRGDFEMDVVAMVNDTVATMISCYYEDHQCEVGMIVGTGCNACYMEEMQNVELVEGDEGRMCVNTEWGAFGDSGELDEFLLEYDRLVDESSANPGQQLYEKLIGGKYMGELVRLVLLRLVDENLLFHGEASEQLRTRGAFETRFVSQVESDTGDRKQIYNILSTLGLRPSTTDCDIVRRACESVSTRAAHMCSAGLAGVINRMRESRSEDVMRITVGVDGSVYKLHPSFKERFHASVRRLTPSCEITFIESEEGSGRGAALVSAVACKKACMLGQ

In the case of `COC[C@H](C)Oc1cc(Oc2cnc(C(=O)N3CCC3)cn2)cc(C(=O)Nc2cnc(C)cn2)c1` [AZD1656, 3-{[5-(Azetidin-1-ylcarbonyl)pyrazin-2-yl]oxy}-5-{[(1S)-1-methyl-2-(methyloxy)ethyl]oxy}-N-(5-methylpyrazin-2-yl)benzamide], the hypoglycaemia [1] is listed as “not to cause hypoglycaemia”, the EC50 (rat hepatocytes) is listed as 470 nM and the EC50 (rat glucokinase) is listed as 72 nM. The EC50 (human hepatocytes) was 1390 nM, the plasma glucose levels (diabetic mice) was “reduces plasma glucose levels in a dose-dependent fashion” and the plasma glucose levels [2] was “reduces plasma glucose levels in a dose-dependent fashion”. The EC50 (human glucokinase) was 57 nM, the “deaths among patients who completed the trial protocol” value [3] was 5 and the “changes in the liver, considered secondary to hypoglycaemia” value (healthy animals; healthy animals, chronic toxicology studies) was “loss of hepatocellular glycogen”. For the same compound, the chronic toxicology findings (healthy animals; healthy animals, higher doses, up to 12 months) was “severe hypoglycaemia at higher doses and sequalae such as Wallerian type nerve degeneration and skeletal muscle fibre degeneration”, the glucose lowering effect (healthy animals; preclinical studies of up to 12-month duration) was “potent glucose lowering effect” and the “HbA1c and fasting plasma glucose (FPG) levels” value ([4]; BID at high (40-200 mg/day), medium (20-140 mg/day) and low (10-80 mg/day) doses over 4 months) was “found to lower HbA1c and fasting plasma blood (FPG) glucose levels”. For the same compound, the “change in HbA1c or FPG from baseline” value ([4]; at 4 months) was “no statistically significant change” and the “time course of HbA1c/FPG effect” value ([4]; between weeks 8 and 16) was “transient trending towards pre-dose levels”.
